Laboratory results from US20240384268A1, “Oligonucleotides” (Hudson Institute of Medical Research, priority 2021, published 2024).
In the oligonucleotide strings, read from the 5' end, every base follows the letter of its sugar. An asterisk marks phosphorothioate; unmarked linkages are phosphodiester. Other units and linkages are bracketed, terminal groups are in braces. A string of capitals states the bases alone. d = 2'-deoxy (DNA); m = 2'-O-methyl

Target: cGAS (Homo sapiens, UniProt Q8N884)
Assay: ISD70-driven IP-10 (and IFN-β) production in THP-1 cells, ELISA
Type: cell-based
Design: endogenous in cells; host or cells: THP-1 (undifferentiated)
Settings: for cGAS-100 nM: averaged IP-10 levels relative to ISD70: THP-1, 100 nM ASO overnight, then ISD70 2.5 μg/ml 7-8 h, percentage of ISD70 only

Chain of cGAS (Q8N884 whole entry): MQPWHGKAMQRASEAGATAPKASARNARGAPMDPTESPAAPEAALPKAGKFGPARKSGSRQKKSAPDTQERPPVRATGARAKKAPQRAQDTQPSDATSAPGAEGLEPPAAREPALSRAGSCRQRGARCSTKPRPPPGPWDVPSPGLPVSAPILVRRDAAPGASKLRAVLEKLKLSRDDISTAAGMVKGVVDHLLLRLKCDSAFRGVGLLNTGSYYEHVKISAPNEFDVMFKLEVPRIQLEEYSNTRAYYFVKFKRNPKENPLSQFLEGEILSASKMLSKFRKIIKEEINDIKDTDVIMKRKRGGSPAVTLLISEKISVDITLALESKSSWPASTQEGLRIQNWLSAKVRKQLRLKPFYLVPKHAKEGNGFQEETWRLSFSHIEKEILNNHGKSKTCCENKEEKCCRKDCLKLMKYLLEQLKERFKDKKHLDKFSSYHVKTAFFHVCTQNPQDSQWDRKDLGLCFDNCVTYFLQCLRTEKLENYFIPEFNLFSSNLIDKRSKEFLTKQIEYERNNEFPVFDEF

mA*mA*mA*mU*mG*T*C*C*T*G*G*C*C*C*T*mC*mA*mC*mU*mG (mA*mA*mA*mU*mG*dT*dC*dC*dT*dG*dG*dC*dC*dC*dT*mC*mA*mC*mU*mG) [[LINC-PINT]148.1]
cGAS-100 nM: averaged IP-10 levels relative to ISD70: 66.46%

mG*mU*mC*mC*mG*T*A*C*C*T*C*C*A*C*C*mC″mA*mC*mC*mG [[LINC-PINT]727.1]
cGAS-100 nM: averaged IP-10 levels relative to ISD70: 86.09%

mU*mG*mU*mG*mA*A*A*A*G*A*T*T*A*T*C*mU*mU*mC*mU*mU (UGUGAAAAGATTATCUUCUU; sugars from the 5' end m5 d10 m5, all phosphorothioate, methylation of C not given here) [[CDKN2B-AS1]2137]
cGAS-100 nM: averaged IP-10 levels relative to ISD70: 40.72%

TGGGTTACGGCTCAGTATGG (antisense; 2'-MOE modified, pattern not given here) [CAMSAP1-4295 MOE]
cGAS 100 nM (MOE-modified ASO at 100 nM, averaged IP-10 levels relative to ISD70 condition): 0.432

mA*mA*mA*mA*mU*A*A*G*G*G*G*A*A*T*A*mG*mG*mG*mG*mA (mA*mA*mA*mA*mU*dA*dA*dG*dG*dG*dG*dA*dA*dT*dA*mG*mG*mG*mG*mA; antisense) [[CDKN2B-AS1]79]
cGAS-100 nM: averaged IP-10 levels relative to ISD70: 94.10%

mG*mC*mG*mU*mA*G*T*T*T*C*T*C*T*T*C*mC*mU*mC*mC*mC (GCGUAGTTTCTCTTCCUCCC; sugars from the 5' end m5 d10 m5, all phosphorothioate, methylation of C not given here) [[LINC-PINT]935 KL]
cGAS-100 nM: averaged IP-10 levels relative to ISD70: 50.62%

mG*mU*mU*mC*mA*G*T*C*A*G*A*T*C*G*C*mU*mG*mG*mG*mA (mG*mU*mU*mC*mA*dG*dT*dC*dA*dG*dA*dT*dC*dG*dC*mU*mG*mG*mG*mA) [[LINC-PINT]412 KL]
cGAS-100 nM: averaged IP-10 levels relative to ISD70: 93.74%

mU*mU*mA*mG*mC*T*C*C*T*T*G*C*C*T*C*mG*mU*mU*mC*mC (mU*mU*mA*mG*mC*dT*dC*dC*dT*dT*dG*dC*dC*dT*dC*mG*mU*mU*mC*mC; antisense) [[LINC-PINT] 1222]
cGAS-100 nM: averaged IP-10 levels relative to ISD70: 63.80%

mC*mU*mU*mU*mA*T*A*T*T*A*C*A*A*A*G*mC*mU*mA*mC*mU (mC*mU*mU*mU*mA*dT*dA*dT*dT*dA*dC*dA*dA*dA*dG*mC*mU*mA*mC*mU; antisense) [[LINC-PINT]2755]
cGAS-100 nM: averaged IP-10 levels relative to ISD70: 92.54%

mC*mC*mC*mU*mU*C*T*C*T*C*T*G*G*T*C*mC*mC*mA*mU*mC (mC*mC*mC*mU*mU*dC*dT*dC*dT*dC*dT*dG*dG*dT*dC*mC*mC*mA*mU*mC; antisense) [[LINC-PINT]114]
cGAS-100 nM: averaged IP-10 levels relative to ISD70: 84.38%

mU*mU*mG*mG*mC*C*T*G*T*G*G*A*T*G*C*mU*mU*mU*mG*mU (mU*mU*mG*mG*mC*dC*dT*dG*dT*dG*dG*dA*dT*dG*dC*mU*mU*mU*mG*mU) [[LINC-PINT]2673.1]
cGAS-100 nM: averaged IP-10 levels relative to ISD70: 68.35%
